Structures can show the parent of a compound that is named as a salt. Where two headings read alike, the source gives them in different places.
Tests used:
[1] = test system: rat; experiment: Rat tail flick assay (tail flick latency in response to heat); assay type: in vivo; conditions: read-out: % MPE (Maximum Possible Effect), tail flick
Source text: The Tail Flick Assay, based upon the methods of D'Amour & Smith (J. Pharmacol. Exp. Therap., 72: 74-79, 1941), is used to measure loss of pain sensation in the rat tail, allowing the experimenter to screen drugs for analgesic effect. Since then, the method has been used in a number of publications. For example, it was used to evaluate the analgesic effect of O-alkyl derivatives of tramadol by Liming Shao and Michael Hewitt etc. (Boiorganic & Medicinal Chemistry Letters, 18:1674-1680, 2008).
A Tail Flick Unit is used to measure tail flick latency in response to heat. The unit consists of an infrared (I.R.) source (50 W bulb) with adjustable intensity that is focused through a flush mounted window on the upper panel of the unit and onto the rat tail. Once I.R. source is focused on the rat tail and turned on, a timer starts. When the thermal threshold for pain is reached and the rat flicks its tail, the I.R source automatically shuts off and the timer stop, displaying the latency time.
On the day of experiment, the animals are tested to determine baseline latency. Each rat is given one test to determine latency to tail flick with a cut off 10 seconds. Baselines are recorded and those animals with a baseline latency of 2-5 seconds are used in the experiment. Animals are divided into several groups according to the baseline latency. The Tail-flick latencies are measured at different timepoints for up to 180 minutes after administration of vehicle or test articles. If treatment group continues to display pain control after 180 minutes, additional measurements are taken every 60 minutes until pain control is no longer observed.
I.R. Source is set at 40 units (determined to elicit tail flick response in desired 2-5 seconds in naïve animals).
Test articles or vehicle are administered by intravenous (IV) injection through the tail vein or by oral gavage at time 0. Animals are gently restrained and held on top of a tail flick unit. The tail is then wiped clean with a cotton square and placed over the I.R. source so that the beam is focused at approximately midway the length of the tail. After the rat is in position, the I.R. source is turned on. When the thermal threshold for pain is reached, the rat flicked its tail and the I.R. source automatically shuts off. Latency time (in seconds) is then recorded.
Data are recorded and graphed as % MPE (Maximum Possible Effect). % MPE is calculated using the following formula: % MPE=[(Test latency−Baseline latency)/(Cut off latency(10 sec.'s)−Baseline latency)]*100
Compounds were administered by the IV route in 20% 2-hydroxypropyl-beta-cyclodextrin (20% HP-β-CD). The dose levels of test article were 2.5, 5, or 20 mg/kg. Examples 2, 3, 13, 40, 77, 78, 114, and Tramadol provided at least 50% MPE at 20 mg/kg. Compounds 5, 8, 17, 105, 107, 148, 158, and 159 provided at least 50% MPE at 5 mg/kg. Compounds 82, 84, and 116 provided at least 50% MPE at 2.5 mg/kg.
Compounds were administered by oral gavage in 0.5% methylcellulose at 20 or 30 mg/kg. Examples 2, 3, 13, 115, and Tramadol provided at least 50% MPE at 30 mg/kg. Compounds 5, 39, 65, 106, and 115 provided at least 50% MPE at 20 mg/kg.

[2] = Unspecified bioassay(s); conditions: comparison of the two enantiomers of Example 181
[3] = oral gavage in 0.5% methylcellulose

`COc1cccc(C2(O)CCCCC2CN(C)C)c1` (centres unmarked) [Tramadol, reference compound] gave an inhibition in vivo at 20 mg/kg ([1]; IV in 20% HP-β-CD) of no less than 50% and an inhibition in vivo at 30 mg/kg [1, 3] of no less than 50%.

`CN(C)C[C@@H]1C(c2cc(O)cc(F)c2)=C[C@H]2CC[C@@H]1C2` (stereo in doubt) [Example 82, 3-(4-Dimethylaminomethyl-bicyclo[3.2.1]oct-2-en-3-yl)-5-fluoro-phenol] gave an inhibition in vivo at 2.5 mg/kg ([1]; IV in 20% HP-β-CD) of no less than 50%.

With `COc1ccc(F)c([C@@]2(O)C[C@H]3CC[C@H](C3)[C@@H]2CN(C)C)c1` (stereo in doubt) [Example 5, 2-Dimethylaminomethyl-3-(2-fluoro-5-methoxy-phenyl)-bicyclo[3.2.1]octan-3-ol] the inhibition in vivo at 20 mg/kg [1, 3] was no less than 50%.

For `CN(C)C[C@@H]1C(c2cccc(OC(=O)C(C)(C)C)c2)=C[C@@H]2CC[C@H]1C2` (stereo in doubt) [Example 105, 2,2-dimethyl-propionic acid 3-(4-dimethylaminomethyl-bicyclo[3.2.1]oct-2-en-3-yl)-phenyl ester], the inhibition in vivo at 5 mg/kg ([1]; IV in 20% HP-β-CD) was no less than 50%.

`Cc1cc(O)cc([C@]2(O)[C@@H](CN(C)C)CC[C@@H]3C[C@@H]32)c1` (stereo in doubt) [Example 159, 3-Dimethylaminomethyl-2-(3-hydroxy-5-methyl-phenyl)-bicyclo[4.1.0] heptan-2-ol] showed an inhibition in vivo at 5 mg/kg ([1]; IV in 20% HP-β-CD) of no less than 50%.

In the case of `CN(C)C[C@@H]1C(c2cccc(O)c2)=C[C@@H]2CC[C@H]1C2` (stereo in doubt) [Example 77, 3-(4-dimethylaminomethyl-bicyclo[3.2.1]oct-2-en-3-yl)-phenol], the inhibition in vivo at 20 mg/kg ([1]; IV in 20% HP-β-CD) is reported as no less than 50%.

`CN(C)C[C@H]1CC[C@@H]2C[C@@H]2[C@]1(O)c1cc(O)ccc1F` (stereo in doubt) [Example 158, 3-Dimethylaminomethyl-2-(2-fluoro-5-hydroxy-phenyl)-bicyclo[4.1.0] heptan-2-ol] gave an inhibition in vivo at 5 mg/kg ([1]; IV in 20% HP-β-CD) of no less than 50%.

For `CN(C)C[C@H]1[C@@H]2CC[C@@H](C2)C[C@H]1c1cc(O)cc(F)c1` (stereo in doubt) [Example 116, 3-(2-dimethylaminomethyl-bicyclo[3.2.1]oct-3-yl)-5-fluoro-phenol], the inhibition in vivo at 2.5 mg/kg ([1]; IV in 20% HP-β-CD) was no less than 50%.

For `CN(C)C[C@@H]1C(c2cccc(OC(=O)c3ccccc3)c2)=C[C@H]2CC[C@@H]1C2` (stereo in doubt) [Example 106, Benzoic acid 3-(4-dimethylaminomethyl-bicyclo[3.2.1]oct-2-en-3-yl)-phenyl ester], the inhibition in vivo at 20 mg/kg [1, 3] was no less than 50%.

`CN(C)C[C@H]1[C@@H]2CC[C@@H](C2)C[C@]1(O)c1cccc(O)c1` (stereo in doubt) [Example 13, 2-Dimethylaminomethyl-3-(3-hydroxy-phenyl)-bicyclo[3.2.1]octan-3-ol] gave an inhibition in vivo at 20 mg/kg ([1]; IV in 20% HP-β-CD) of no less than 50% and an inhibition in vivo at 30 mg/kg [1, 3] of no less than 50%.

For `COc1cccc([C@]2(O)[C@@H](CN(C)C)CC[C@@H]3C[C@@H]32)c1` (stereo in doubt) [Example 148, 3-Dimethylaminomethyl-2-(3-methoxy-phenyl)-bicyclo[4.1.0] heptan-2-ol], the inhibition in vivo at 5 mg/kg ([1]; IV in 20% HP-β-CD) was no less than 50%.

In the case of `CN(C)C[C@H]1[C@@H]2CC[C@@H](C2)C[C@]1(O)c1cc(O)cc(F)c1` (stereo in doubt) [Example 40, 2-Dimethylaminomethyl-3-(3-fluoro-5-hydroxy-phenyl)-bicyclo[3.2.1]octan-3-ol], the inhibition in vivo at 20 mg/kg ([1]; IV in 20% HP-β-CD) is reported as no less than 50%.

For `CN(C)C[C@H]1[C@H]2CC[C@H](C2)C[C@]1(O)c1cccc(O)c1` [(+)-Enantioisomers, (+)-(1S,2R,3R,5R)-2-((dimethylamino)methyl)-3-(3-hydroxyphenyl)bicyclo[3.2.1]octan-3-ol], the “biological activity in bioassay(s)” value [2] was “better biological activity than (−)-enantioisomer”.

`COc1ccc(F)c([C@@]2(O)C[C@H]3CC[C@H](C3)[C@@H]2CN(C)C)c1` [Example 17, 2-Dimethylamino-methyl-3-(2-fluoro-5-methoxy-phenyl)-bicyclo[3.2.1]octan-3-ol hydrochloride] gave an inhibition in vivo at 5 mg/kg ([1]; IV in 20% HP-β-CD) of no less than 50%.

`CN(C)C[C@@H]1C(c2cc(F)cc(OC(=O)C(C)(C)C)c2)=C[C@H]2CC[C@@H]1C2` [Example 107, 2,2-Dimethyl-propionic-acid 3-(4-dimethyl-aminomethyl-bicyclo[3.2.1]oct-2-en-3-yl)-5-fluoro-phenyl ester] gave an inhibition in vivo at 5 mg/kg ([1]; IV in 20% HP-β-CD) of no less than 50%.

In the case of `COc1cccc([C@@]2(O)C[C@H]3CCC(C3)[C@@H]2CN(C)C)c1` (stereo in doubt) [Example 2, 2-dimethylaminomethyl-3-(3-methoxy-phenyl)-bicyclo[3.2.1]octan-3-ol], the inhibition in vivo at 20 mg/kg ([1]; IV in 20% HP-β-CD) is reported as no less than 50% and the inhibition in vivo at 30 mg/kg [1, 3] is reported as no less than 50%.

For `COc1cccc(C2=C[C@H]3CC[C@H](C3)[C@@H]2CN(C)C)c1` (stereo in doubt) [Example 78, [3-(3-Methoxy-phenyl)-bicyclo[3.2.1]oct-3-en-2-ylmethyl]-dimethyl-amine], the inhibition in vivo at 20 mg/kg ([1]; IV in 20% HP-β-CD) was no less than 50%.

`CN(C)C[C@H]1C2CC[C@@H](C2)C[C@]1(O)c1cc(OC(=O)C(C)(C)C)ccc1F` [Example 65, 2,2-dimethyl-propionic acid 3-(2-dimethylaminomethyl-3-hydroxy-bicycle[3.2.1]oct-3-yl)-4-fluoro-phenyl ester] showed an inhibition in vivo at 20 mg/kg [1, 3] of no less than 50%.

With `CN(C)C[C@H]1[C@H]2CC[C@H](C2)C[C@H]1c1cccc(O)c1` (stereo in doubt) [Example 114, 3-(2-dimethylaminomethyl-bicyclo[3.2.1]oct-3-yl)-phenol] the inhibition in vivo at 20 mg/kg ([1]; IV in 20% HP-β-CD) was no less than 50%.

`CN(C)C[C@H]1C2CC[C@@H](C2)C[C@]1(O)c1cc(O)ccc1F` (stereo in doubt) [Example 39, 2-dimethylaminomethyl-3-(2-fluoro-5-hydroxy-phenyl)-bicyclo[3.2.1]octan-3-ol] showed an inhibition in vivo at 20 mg/kg [1, 3] of no less than 50%.

For `COc1cc(F)cc([C@@]2(O)C[C@H]3CC[C@H](C3)[C@@H]2CN(C)C)c1` (stereo in doubt) [Example 3, 2-Dimethylaminomethyl-3-(3-fluoro-5-methoxy-phenyl)-bicyclo[3.2.1]octan-3-ol], the inhibition in vivo at 20 mg/kg ([1]; IV in 20% HP-β-CD) was no less than 50% and the inhibition in vivo at 30 mg/kg [1, 3] was no less than 50%.

In the case of `COc1cc(C)cc([C@@]2(O)C[C@H]3CC[C@H](C3)[C@@H]2CN(C)C)c1` (stereo in doubt) [Example 8, 2-Dimethylaminomethyl-3-(3-methoxy-5-methyl-phenyl)-bicyclo[3.2.1]octan-3-ol], the inhibition in vivo at 5 mg/kg ([1]; IV in 20% HP-β-CD) is reported as no less than 50%.

Work on `COc1cccc([C@@H]2C[C@H]3CC[C@H](C3)[C@@H]2CN(C)C)c1` (stereo in doubt) [Example 115, [3-(3-methoxy-phenyl)-bicyclo[3.2.1]oct-2-ylmethyl]-dimethyl-amine] yielded an inhibition in vivo at 20 mg/kg [1, 3] of no less than 50% and an inhibition in vivo at 30 mg/kg [1, 3] of no less than 50%.

Work on `CN(C)C[C@@H]1C(c2cc(O)ccc2F)=C[C@H]2CC[C@@H]1C2` (stereo in doubt) [Example 84, 3-(4-Dimethylaminomethyl-bicyclo[3.2.1]oct-2-en-3-yl)-4-fluoro-phenol] yielded an inhibition in vivo at 2.5 mg/kg ([1]; IV in 20% HP-β-CD) of no less than 50%.

From patent publication US8802728B2, “Analgesic compounds, methods, and formulations” (Eli Lilly and Company, priority 2011, dated 2014)
